The source of these data is ChEMBL document CHEMBL1201862, “PubChem BioAssay data set” (2004).

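96-well plates; 48 h exposure; 5 concentrations. Endpoints by linear interpolation between flanking doses. Not reached: highest tested concentration assigned. The concentration for 50% growth inhibition is given as GI50.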 Calls of active or inactive are those of the source. No stated cut-off is given here; in the data, active = GI50 up to about 1.1 µM and inactive = higher.

Among the test systems are TK-10; HCT-15; SK-MEL-5; A498; OVCAR-5; BT-549; LOX IMVI; CCRF-CEM; UACC-257; COLO 205; RXF 393; EKVX; OVCAR-8; UACC-62; OVCAR-3; 786-0; IGROV-1; HOP-92.
Common to all, as to experiment: inhibition of tumour cell growth, NCI panel, 48 h

On to `CC1(C)Oc2ccc(Cl)cc2C12CC2`, for which the GI50 in the experiment with TK-10 was 18.4 µM (inactive); in the experiment on HCT-15, 17.1 µM; in the experiment with SK-MEL-5 it was 18 µM (inactive); in the experiment with A498, 15.1 µM (inactive); with OVCAR-5, 17.4 µM (inactive); in the experiment with BT-549, 21.1 µM (inactive). For the same compound, the GI50 with LOX IMVI is 16.6 µM (inactive); with CCRF-CEM it was 22.7 µM (inactive); in the experiment on UACC-257, 15.1 µM (inactive); with COLO 205 it was 14 µM (inactive); with RXF 393 it was 15.6 µM (inactive); with EKVX, 10.8 µM (inactive). Also, the GI50 is 14.7 µM (inactive) in the experiment on OVCAR-8; 40.5 µM (inactive) in the experiment on UACC-62; 13.8 µM (inactive) in the experiment on OVCAR-3; 16.7 µM (inactive) in the experiment with 786-0; 14.7 µM (inactive) in the experiment with IGROV-1.

As for `COC(=O)[C@]12CSC[C@H]1C[C@H](c1ccc(N(C)C)cc1)N2`, the GI50 with TK-10 was > 100 µM (inactive); with HCT-15 it was more than 100 µM; in the experiment with HOP-92 it was > 100 µM (inactive); in the experiment with SK-MEL-5, > 100 µM (inactive); with A498, > 28.1 µM (inactive); with OVCAR-5 it was > 100 µM (inactive). In addition, the GI50 with BT-549 is > 100 µM (inactive); with LOX IMVI, > 100 µM (inactive); in the experiment on UACC-257 it was > 100 µM (inactive); with COLO 205, > 100 µM (inactive); in the experiment on RXF 393, > 100 µM (inactive); with EKVX, > 73.3 µM (inactive). Further, the GI50 in the experiment on OVCAR-8, with UACC-62, with OVCAR-3, in the experiment with 786-0 and in the experiment on IGROV-1 was > 100 µM (inactive) each time.

Regarding `COc1cccc(C(C#N)NNC(=O)c2c(Cl)c(Cl)c(Cl)c(Cl)c2-c2nc3cc(C(=O)c4ccccc4)ccc3[nH]2)c1O` (stereo not given), the GI50 in the experiment on TK-10 is 7.71 µM (inactive); in the experiment on HCT-15, 4.06 µM; in the experiment with HOP-92 it was 9.2 µM (inactive); in the experiment with SK-MEL-5, 2.71 µM (inactive); in the experiment on A498, 2.05 µM (inactive); in the experiment with OVCAR-5, 18.6 µM (inactive). For the same compound, the GI50 in the experiment on BT-549 was 6.37 µM (inactive); with LOX IMVI, 5.19 µM (inactive); in the experiment on CCRF-CEM, 3.2 µM (inactive); with UACC-257, 9.02 µM (inactive); in the experiment on COLO 205, 3.24 µM (inactive); in the experiment with RXF 393, 2.17 µM (inactive). Besides, the GI50 with EKVX is 14.3 µM (inactive); in the experiment with OVCAR-8, 11.3 µM (inactive); in the experiment on OVCAR-3 it was 2.2 µM (inactive); with 786-0, 4.06 µM (inactive); in the experiment with IGROV-1, 5.77 µM (inactive).

On to `C1=CC(=[N+]2N=C(c3ccccc3)CC2c2ccccc2)C=CC1=C1SC(c2ccccc2)(c2ccccc2)c2ccccc21.[O-][Cl+3]([O-])([O-])[O-]` (stereo not given), for which the GI50 in the experiment with TK-10 was > 100 µM (inactive); in the experiment on HCT-15, more than 100 µM; in the experiment with HOP-92, 82 µM (inactive); in the experiment with SK-MEL-5, > 100 µM (inactive); in the experiment with A498, > 100 µM (inactive); with OVCAR-5 it was > 100 µM (inactive). Further, the GI50 with BT-549 is 78.5 µM (inactive); in the experiment with CCRF-CEM, > 100 µM (inactive); in the experiment on RXF 393, > 100 µM (inactive); in the experiment on EKVX, > 100 µM (inactive); in the experiment with OVCAR-8, > 100 µM (inactive); with UACC-62 it was > 100 µM (inactive). The GI50 in the experiment on OVCAR-3, in the experiment on 786-0 and in the experiment with IGROV-1 was > 100 µM (inactive) throughout.

`O=[N+]([O-])c1nccn1CC1OC(n2ccnc2[N+](=O)[O-])C(O)C(O)C1O` (stereo not given): the GI50 with TK-10, in the experiment on HOP-92, in the experiment on SK-MEL-5, with A498, with OVCAR-5 and in the experiment with BT-549 was > 100 µM (inactive) each time. Besides, the GI50 in the experiment on CCRF-CEM, with UACC-257, in the experiment with COLO 205, in the experiment on RXF 393, in the experiment with EKVX and in the experiment on OVCAR-8 was > 100 µM (inactive) each time. The GI50 with UACC-62 and in the experiment with 786-0 was > 100 µM (inactive) throughout.
